Assay type in all cases: cell-based
One assay deals with S. aureus MSSA-7 PC-1. Nature of the assay: Broth microdilution MIC, S. aureus MSSA-7. To be noted: Staphylococcus aureus, fixed piperacillin 4 μg/mL, CAMHB, 16-20 hours 37° C., read-out: MIC of exemplary compounds in presence of fixed β-lactams, Fixed Pip, S. aureus MSSA-7 PC-1. In general terms: In broth dilution the organism is exposed to a series of concentrations in liquid medium.

For the next assay, the system named is K.P. A-1797 KPC-2 VIM-4. Description: Broth microdilution MIC, K. pneumoniae A-1797. To be noted: Klebsiella pneumoniae; fixed meropenem 4 μg/mL, CAMHB, 16-20 hours 37° C.; read-out: MIC of exemplary compounds in presence of fixed β-lactams, Fixed Mero, K.P. A-1797 KPC-2 VIM-4.
The next assay concerns E. cl 144200 p99 AmpC. Nature of the assay: Broth microdilution MIC, E. cloacae 144200. To be noted: Enterobacter cloacae; fixed ceftazidime 4 μg/mL, CAMHB, 16-20 hours 37° C.; read-out: MIC of exemplary compounds in presence of fixed β-lactams, Fixed CAZ, E. cl 144200 p99 AmpC. The essentials: (§1)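 Potentiation MIC: the lowest test compound concentration inhibiting visible growth in cation-adjusted Mueller Hinton broth containing a β-lactam at a static 4 μg/ml. Compound range was 32–0.25 μg/mL; incubation lasted 16-20 hours at 37° C.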

The test system of another assay is K.P. 156319 KPC-3. Nature of the assay: Broth microdilution MIC, K. pneumoniae 156319. The conditions noted are these: Klebsiella pneumoniae; fixed meropenem 4 μg/mL, CAMHB, 16-20 hours 37° C.; read-out: MIC of exemplary compounds in presence of fixed β-lactams, Fixed Mero, K.P. 156319 KPC-3.
For another assay, the system named is P. aerug. Ps296 VIM-2. Description: Broth microdilution MIC, P. aeruginosa Ps296. The conditions noted are these: Pseudomonas aeruginosa; fixed meropenem 4 μg/mL, CAMHB, 16-20 hours 37° C.; read-out: MIC of exemplary compounds in presence of fixed β-lactams, Fixed Mero, P. aerug. Ps296 VIM-2. In outline: as §1
The next assay deals with E. coli ESBL4 CTX-M-15. Description: Broth microdilution MIC, E. coli ESBL4. The conditions noted are these: Escherichia coli, ESBL4CTXM15; fixed ceftazidime 4 μg/mL, CAMHB, 16-20 hours 37° C.; read-out: MIC of exemplary compounds in presence of fixed β-lactams, Fixed CAZ, E. coli ESBL4 CTX-M-15. In outline:
as §1

Consider 16 compounds from patent publication US10669290B2, “Beta-lactamase inhibitors” (priority 2012, dated 2020).

Each structure is given as a SMILES string. Bounds are passed on as bounds.

Broadly, the MIC is the lowest concentration found to suppress growth.

As to `COC(=O)NCCN[C@H]1CC[C@H](CC(=O)N[C@H]2Cc3cccc(C(=O)O)c3OB2O)CC1` [Example 54, (R)-2-hydroxy-3-(2-(trans-4-(2-(methoxycarbonylamino)ethylamino)cyclohexyl)acetamido)-3,4-dihydro-2H-benzo[e][1,2]oxaborinine-8-carboxylic acid], the MIC in the assay with S. aureus MSSA-7 PC-1 was less than 4 µg/mL; in the assay on K.P. A-1797 KPC-2 VIM-4, 8 to 32 µg/mL; in the assay with E. cl 144200 p99 AmpC, less than 4 µg/mL; in the assay with K.P. 156319 KPC-3 it was less than 4 µg/mL; in the assay on P. aerug. Ps296 VIM-2 it was less than 4 µg/mL; in the assay with E. coli ESBL4 CTX-M-15, less than 4 µg/mL.

Take `NCCNC1CC(CC(=O)N[C@H]2Cc3cccc(C(=O)O)c3OB2O)C1` (stereo partly drawn) [Example 55, (R)-3-(2-(3-(2-aminoethylamino)cyclobutyl)acetamido)-2-hydroxy-3,4-dihydro-2H-benzo[e][1,2]oxaborinine-8-carboxylic acid]: the MIC with S. aureus MSSA-7 PC-1, in the assay on K.P. A-1797 KPC-2 VIM-4, in the assay on E. cl 144200 p99 AmpC, in the assay on K.P. 156319 KPC-3, in the assay with P. aerug. Ps296 VIM-2 and in the assay on E. coli ESBL4 CTX-M-15 was less than 4 µg/mL throughout.

For the compound `NC1CC(CC(=O)N[C@H]2Cc3cccc(C(=O)O)c3OB2O)C1` (stereo partly drawn) [Example 56, (R)-3-(2-(3-aminocyclobutyl)acetamido)-2-hydroxy-3,4-dihydro-2H-benzo[e][1,2]oxaborinine-8-carboxylic acid], the MIC with S. aureus MSSA-7 PC-1, in the assay on K.P. A-1797 KPC-2 VIM-4, with E. cl 144200 p99 AmpC, with K.P. 156319 KPC-3, in the assay on P. aerug. Ps296 VIM-2 and with E. coli ESBL4 CTX-M-15 was less than 4 µg/mL in each case.

For the compound `NCCNC(=O)NCCN(C(=O)NCCN)C1CC(CC(=O)N[C@H]2Cc3cccc(C(=O)O)c3OB2O)C1` (stereo partly drawn) [Example 57, (R)-3-(2-(3-(3-(2-aminoethyl)-1-(2-(3-(2-aminoethyl)ureido)ethyl)ureido)cyclobutyl)acetamido)-2-hydroxy-3,4-dihydro-2H-benzo[e][1,2]oxaborinine-8-carboxylic acid], the MIC was less than 4 µg/mL in the assay on S. aureus MSSA-7 PC-1; 8 to 32 µg/mL with K.P. A-1797 KPC-2 VIM-4; less than 4 µg/mL with E. cl 144200 p99 AmpC; less than 4 µg/mL in the assay on K.P. 156319 KPC-3; less than 4 µg/mL in the assay with P. aerug. Ps296 VIM-2; less than 4 µg/mL in the assay with E. coli ESBL4 CTX-M-15.

Turning to `NCCNC(=O)NC1CC(CC(=O)N[C@H]2Cc3cccc(C(=O)O)c3OB2O)C1` (stereo partly drawn) [Example 58, (R)-3-(2-(3-(3-(2-aminoethyl)ureido)cyclobutyl)acetamido)-2-hydroxy-3,4-dihydro-2H-benzo[e][1,2]oxaborinine-8-carboxylic acid], the MIC with S. aureus MSSA-7 PC-1, in the assay on K.P. A-1797 KPC-2 VIM-4, with E. cl 144200 p99 AmpC, in the assay with K.P. 156319 KPC-3, in the assay on P. aerug. Ps296 VIM-2 and in the assay on E. coli ESBL4 CTX-M-15 was less than 4 µg/mL throughout.

Take `NCCNC(=O)N[C@H]1CC[C@H](CC(=O)N[C@H]2Cc3cccc(C(=O)O)c3OB2O)CC1` [Example 59, (R)-3-(2-(trans-4-(3-(2-aminoethyl)ureido)cyclohexyl)acetamido)-2-hydroxy-3,4-dihydro-2H-benzo[e][1,2]oxaborinine-8-carboxylic acid]: the MIC was less than 4 µg/mL in the assay on S. aureus MSSA-7 PC-1; 8 to 32 µg/mL with K.P. A-1797 KPC-2 VIM-4; less than 4 µg/mL in the assay with E. cl 144200 p99 AmpC; less than 4 µg/mL in the assay with K.P. 156319 KPC-3; less than 4 µg/mL with P. aerug. Ps296 VIM-2; less than 4 µg/mL in the assay with E. coli ESBL4 CTX-M-15.

Take `NCCCN[C@H]1CC[C@H](CC(=O)N[C@H]2Cc3cccc(C(=O)O)c3OB2O)CC1` [Example 60, (R)-3-(2-(trans-4-(3-aminopropylamino)cyclohexyl)acetamido)-2-hydroxy-3,4-dihydro-2H-benzo[e][1,2]oxaborinine-8-carboxylic acid]: the minimal inhibitory concentration (MIC) in the assay on S. aureus MSSA-7 PC-1, with K.P. A-1797 KPC-2 VIM-4, with E. cl 144200 p99 AmpC, in the assay with K.P. 156319 KPC-3, with P. aerug. Ps296 VIM-2 and in the assay on E. coli ESBL4 CTX-M-15 was less than 4 µg/mL throughout.

For the compound `O=C(C[C@H]1CC[C@H](NCCNCCO)CC1)N[C@H]1Cc2cccc(C(=O)O)c2OB1O` [Example 61, (R)-2-hydroxy-3-(2-(trans-4-(2-(2-hydroxyethylamino)ethylamino)cyclohexyl)acetamido)-3,4-dihydro-2H-benzo[e][1,2]oxaborinine-8-carboxylic acid], the MIC with S. aureus MSSA-7 PC-1, with K.P. A-1797 KPC-2 VIM-4, with E. cl 144200 p99 AmpC, with K.P. 156319 KPC-3, with P. aerug. Ps296 VIM-2 and in the assay with E. coli ESBL4 CTX-M-15 was less than 4 µg/mL each time.

For `C[C@H](N)CNCCN[C@H]1CC[C@H](CC(=O)N[C@H]2Cc3cccc(C(=O)O)c3OB2O)CC1` [Example 62, (R)-3-(2-(trans-4-(2-((S)-2-aminopropylamino)ethylamino)cyclohexyl)acetamido)-2-hydroxy-3,4-dihydro-2H-benzo[e][1,2]oxaborinine-8-carboxylic acid], the MIC was less than 4 µg/mL in the assay on S. aureus MSSA-7 PC-1; less than 4 µg/mL with K.P. A-1797 KPC-2 VIM-4; less than 4 µg/mL in the assay with E. cl 144200 p99 AmpC; less than 4 µg/mL with K.P. 156319 KPC-3; 8 to 32 µg/mL in the assay with P. aerug. Ps296 VIM-2; less than 4 µg/mL in the assay with E. coli ESBL4 CTX-M-15.

For `CN(CCN)[C@H]1CC[C@H](CC(=O)N[C@H]2Cc3cccc(C(=O)O)c3OB2O)CC1` [Example 63, (R)-3-(2-(trans-4-((2-aminoethyl)(methyl)amino)cyclohexyl)acetamido)-2-hydroxy-3,4-dihydro-2H-benzo[e][1,2]oxaborinine-8-carboxylic acid], the MIC in the assay on S. aureus MSSA-7 PC-1, in the assay on K.P. A-1797 KPC-2 VIM-4, with E. cl 144200 p99 AmpC, in the assay with K.P. 156319 KPC-3, with P. aerug. Ps296 VIM-2 and with E. coli ESBL4 CTX-M-15 was less than 4 µg/mL in each case.

With `CNCCN[C@H]1CC[C@H](C(CO)C(=O)N[C@H]2Cc3cccc(C(=O)O)c3OB2O)CC1` (stereo partly drawn) [Example 64, (R)-2-hydroxy-3-(3-hydroxy-2-(trans-4-(2-(methylamino)ethylamino)cyclohexyl)propanamido)-3,4-dihydro-2H-benzo[e][1,2]oxaborinine-8-carboxylic acid], the MIC in the assay with S. aureus MSSA-7 PC-1, in the assay on K.P. A-1797 KPC-2 VIM-4, with E. cl 144200 p99 AmpC, in the assay with K.P. 156319 KPC-3, with P. aerug. Ps296 VIM-2 and in the assay on E. coli ESBL4 CTX-M-15 was less than 4 µg/mL each time.

On to `N[C@@H](CO)CN[C@H]1CC[C@H](CC(=O)N[C@H]2Cc3cccc(C(=O)O)c3OB2O)CC1` [Example 65, (R)-3-(2-(trans-4-((R)-2-amino-3-hydroxypropylamino)cyclohexyl)acetamido)-2-hydroxy-3,4-dihydro-2H-benzol[e][1,2]oxaborinine-8-carboxylic acid], for which the MIC in the assay with S. aureus MSSA-7 PC-1 is less than 4 µg/mL; in the assay on K.P. A-1797 KPC-2 VIM-4 it was less than 4 µg/mL; with E. cl 144200 p99 AmpC, less than 4 µg/mL; with K.P. 156319 KPC-3 it was less than 4 µg/mL; with P. aerug. Ps296 VIM-2, 8 to 32 µg/mL; in the assay on E. coli ESBL4 CTX-M-15 it was less than 4 µg/mL.

With `CSCCN[C@H]1CC[C@H](CC(=O)N[C@H]2Cc3cccc(C(=O)O)c3OB2O)CC1` [Example 66, (R)-2-hydroxy-3-(2-(trans-4-(2-(methylthio)ethylamino)cyclohexyl)acetamido)-3,4-dihydro-2H-benzo[e][1,2]oxaborinine-8-carboxylic acid], the MIC is less than 4 µg/mL in the assay on S. aureus MSSA-7 PC-1; 8 to 32 µg/mL in the assay on K.P. A-1797 KPC-2 VIM-4; less than 4 µg/mL with E. cl 144200 p99 AmpC; less than 4 µg/mL in the assay with K.P. 156319 KPC-3; 8 to 32 µg/mL in the assay on P. aerug. Ps296 VIM-2; less than 4 µg/mL with E. coli ESBL4 CTX-M-15.

Take `N[C@H](CO)CN[C@H]1CC[C@H](CC(=O)N[C@H]2Cc3cccc(C(=O)O)c3OB2O)CC1` [Example 67, (R)-3-(2-(trans-4-((S)-2-amino-3-hydroxypropylamino)cyclohexyl)acetamido)-2-hydroxy-3,4-dihydro-2H-benzol[e][1,2]oxaborinine-8-carboxylic acid]: the minimal inhibitory concentration (MIC) with S. aureus MSSA-7 PC-1, in the assay on K.P. A-1797 KPC-2 VIM-4, in the assay with E. cl 144200 p99 AmpC, in the assay with K.P. 156319 KPC-3, in the assay on P. aerug. Ps296 VIM-2 and with E. coli ESBL4 CTX-M-15 was less than 4 µg/mL in each case.

In the case of `NCC(=O)N[C@H]1CC[C@H](CC(=O)N[C@H]2Cc3cccc(C(=O)O)c3OB2O)CC1` [Example 68, (R)-3-(2-(trans-4-(2-aminoacetamido)cyclohexyl)acetamido)-2-hydroxy-3,4-dihydro-2H-benzol[e][1,2]oxaborinine-8-carboxylic acid], the MIC is less than 4 µg/mL in the assay with S. aureus MSSA-7 PC-1; 8 to 32 µg/mL in the assay on K.P. A-1797 KPC-2 VIM-4; less than 4 µg/mL in the assay on E. cl 144200 p99 AmpC; less than 4 µg/mL in the assay with K.P. 156319 KPC-3; 8 to 32 µg/mL with P. aerug. Ps296 VIM-2; less than 4 µg/mL in the assay on E. coli ESBL4 CTX-M-15.

In the case of `O=C(C[C@H]1CC[C@H](N(Cc2ncc[nH]2)Cc2ncc[nH]2)CC1)N[C@H]1Cc2cccc(C(=O)O)c2OB1O` [Example 69, (R)-3-(2-(trans-4-(bis((1H-imidazol-2-yl)methyl)amino)cyclohexyl)acetamido)-2-hydroxy-3,4-dihydro-2H-benzo[e][1,2]oxaborinine-8-carboxylic acid], the MIC in the assay on S. aureus MSSA-7 PC-1 is less than 4 µg/mL; in the assay on K.P. A-1797 KPC-2 VIM-4 it was more than 32 µg/mL; in the assay with E. cl 144200 p99 AmpC it was less than 4 µg/mL; in the assay on K.P. 156319 KPC-3, less than 4 µg/mL; with P. aerug. Ps296 VIM-2, less than 4 µg/mL; in the assay on E. coli ESBL4 CTX-M-15, less than 4 µg/mL.
